Reference: publication PMC10891214, “Effects of food and ethnicity on the pharmacokinetics of venadaparib, a next-generation PARP inhibitor, in healthy Korean, Caucasian, and Chinese male subjects” (Investigational New Drugs, 2023)

What was measured:
[1] = Pharmacokinetics after a single oral administration of venadaparib 80 mg (fasted or fed state) in healthy male subjects; format: in vivo, human; conditions: for AUCinf / AUClast / CL/F / Cmax / Vd/F / t1/2 / Tmax: 80 mg single oral; for AUCinf / AUClast / CL/F / Cmax / Vd/F / t1/2: mean ± SD; for Tmax: median (minimum–maximum); for AUCinf geometric mean ratio (90% confidence interval) / AUClast geometric mean ratio (90% confidence interval) / Cmax geometric mean ratio (90% confidence interval): fed to fasted state
Description: A randomized, open-label, single-dose, two-sequence, and two-period crossover study was conducted with 12 Korean and 12 Caucasian subjects. Subjects in each ethnic group were randomly assigned to one of the two sequences at a ratio of 1:1 (Fig. 1). The subjects were orally administered 80 mg of venadaparib in each treatment period (fasted or fed state), following an overnight fast of at least 10 h. There was a seven-day washout between the two treatment periods. In the fed state, the subjects consumed an entire high-fat meal (total of 800–1000 kcal, fat of 500–600 kcal) within 20 min and were subsequently administered the study drug with 240 mL of water 30 min after the start of the meal. An open-label, single-dose study was conducted on 12 Chinese subjects who received 80 mg of venadaparib only in the fasted state (Fig. 1).
Based on the PK results of venadaparib in a previous study (NCT03317743), serial blood samples for the PK analysis of venadaparib were collected at 0 (pre-dose), 0.25, 0.5, 1, 2, 3, 4, 6, 8, 10, 12, 24, 36, 48, and 72 h post-dose for all treatment and ethnic groups. The blood samples were collected in a K2-ethylenediaminetetraacetic acid (EDTA) vacutainer, centrifuged at 4 ℃ and 3000 rpm for 10 min, and stored at − 70 ℃ until analysis.
Plasma concentrations of venadaparib were determined using validated high-performance liquid chromatography (Exion LC, AB Sciex) coupled with mass spectrometry (Triple Quad 5500+, AB Sciex). Venadaparib as an analyte and olaparib as the internal standard were separated using a Gemini 3 μm NX-C18 110 Å (100 × 3 mm) column (Phenomenex, CA, USA) at 40 ℃. The mobile phase comprised 0.1% formic acid in distilled water and 100% acetonitrile at a flow rate of 0.3 mL/minute. Venadaparib and olaparib were detected with a turbo-ion spray in positive ionization mode at an m/z transition of 407.2 → 70.0 and 435.2 → 281.1, respectively.
The calibration curve for venadaparib ranged from 5 to 5000 μg/L, with precision and accuracy ranging from 1.89 to 4.00% and 92.98 to 102.80%, respectively. For the quality control sample data of venadaparib, the precision and accuracy ranged from 4.38 to 5.18% and 96.75 to 102.59%, respectively.
The PK parameters of venadaparib were calculated by a non-compartmental method using Phoenix WinNonlin software version 8.3.4 (Certara, NJ, USA). The area under the plasma concentration-time curve (AUC) was determined using the linear-up log-down trapezoidal method. The primary PK parameters were Cmax and AUC from time zero to the last measurable time point (AUClast) for comparison between the exposures to the effects of food and ethnicity. The following secondary PK parameters were calculated: AUC from time zero to infinity (AUCinf), time to reach Cmax (Tmax), t1/2, apparent total clearance (CL/F), and apparent volume of distribution (Vd/F).
Statistical analyses were conducted using SAS software version 9.4 (SAS Institute Inc., NC, USA). The primary PK parameters in the fed and fasted states were compared by estimating the geometric mean ratios and 90% confidence intervals using a linear mixed-effects model. The model included the sequence, period, and treatment as fixed effects, and the subject nested within the sequence as a random effect. Analysis of variance (ANOVA) tests were conducted to assess possible differences in the values of the primary PK parameters among the ethnic groups in the fasted state.

PARP1 = test system: PARP1; parameters: method as in PMID 36808277; conditions: cited from earlier work
[2] = test system: poly(ADP-ribose) formation; parameters: method as in PMID 36808277, PMID 24162931, PMID 33657415; conditions: cited from earlier work
[3] = Caucasian, fasted state (N = 12)

**Q.** Which AUCinf [1, 3] does the source give for `O=C(c1cc(Cc2n[nH]c(=O)c3ccccc23)ccc1F)N1CC(CNC2CC2)C1` [venadaparib] here?
**A.** 14202.62 ± 4352.38 ng·h/mL

**Q.** And the AUClast [1, 3]?
**A.** 14091.32 ± 4285.15 ng·h/mL

**Q.** And the CL/F [1, 3]?
**A.** 6.10 ± 1.73 L/h

**Q.** What about the Cmax [1, 3] of the same compound?
**A.** 2392.29 ± 464.48 ng/mL

**Q.** What about the Vd/F [1, 3] of the same compound?
**A.** 72.52 ± 18.25 L

**Q.** What about the t1/2 [1, 3] of the same compound?
**A.** 9.32 ± 4.98 h

**Q.** And the Tmax [1, 3]?
**A.** 0.50 (0.50–2.00) h

**Q.** And the AUCinf ([1]; Caucasian, fed state (N = 12))?
**A.** 13752.20 ± 4522.49 ng·h/mL

**Q.** What about the AUClast ([1]; Caucasian, fed state (N = 12)) of the same compound?
**A.** 13557.03 ± 4401.60 ng·h/mL

**Q.** What about the CL/F ([1]; Caucasian, fed state (N = 12)) of the same compound?
**A.** 6.33 ± 1.78 L/h

**Q.** And the Cmax ([1]; Caucasian, fed state (N = 12))?
**A.** 1894.30 ± 602.49 ng/mL

**Q.** And the Vd/F ([1]; Caucasian, fed state (N = 12))?
**A.** 124.29 ± 71.28 L

**Q.** And the t1/2 ([1]; Caucasian, fed state (N = 12))?
**A.** 14.16 ± 7.16 h

**Q.** What about the Tmax ([1]; Caucasian, fed state (N = 12)) of the same compound?
**A.** 2.00 (1.00–4.00) h

**Q.** What about the “AUCinf geometric mean ratio (90% confidence interval)” value ([1]; Caucasian, 80 mg) of the same compound?
**A.** 0.96 (0.9074–1.0260)

**Q.** And the “AUClast geometric mean ratio (90% confidence interval)” value ([1]; Caucasian, 80 mg)?
**A.** 0.96 (0.9017–1.0186)

**Q.** And the “Cmax geometric mean ratio (90% confidence interval)” value ([1]; Caucasian, 80 mg)?
**A.** 0.77 (0.6871–0.8609)

**Q.** What about the “Decrease of Cmax in the fed state compared with the fasted state” value ([1]; Caucasians, 80 mg) of the same compound?
**A.** 23%

**Q.** And the AUCinf ([1]; Chinese, fasted state (N = 12))?
**A.** 14981.87 ± 4276.66 ng·h/mL

**Q.** And the AUClast ([1]; Chinese, fasted state (N = 12))?
**A.** 14878.51 ± 4254.97 ng·h/mL

**Q.** And the CL/F ([1]; Chinese, fasted state (N = 12))?
**A.** 5.84 ± 2.02 L/h

**Q.** And the Cmax ([1]; Chinese, fasted state (N = 12))?
**A.** 2390.12 ± 576.02 ng/mL

**Q.** What about the Vd/F ([1]; Chinese, fasted state (N = 12)) of the same compound?
**A.** 53.23 ± 20.51 L

**Q.** What about the t1/2 ([1]; Chinese, fasted state (N = 12)) of the same compound?
**A.** 6.95 ± 4.18 h

**Q.** And the Tmax ([1]; Chinese, fasted state (N = 12))?
**A.** 1.00 (0.50–2.00) h

**Q.** What about the AUCinf ([1]; Korean, fasted state (N = 12)) of the same compound?
**A.** 12453.18 ± 3565.66 ng·h/mL

**Q.** What about the AUClast ([1]; Korean, fasted state (N = 12)) of the same compound?
**A.** 12347.13 ± 3514.30 ng·h/mL

**Q.** What about the CL/F ([1]; Korean, fasted state (N = 12)) of the same compound?
**A.** 6.92 ± 1.95 L/h

**Q.** And the Cmax ([1]; Korean, fasted state (N = 12))?
**A.** 2165.59 ± 446.08 ng/mL

**Q.** What about the Vd/F ([1]; Korean, fasted state (N = 12)) of the same compound?
**A.** 83.84 ± 48.70 L

**Q.** What about the t1/2 ([1]; Korean, fasted state (N = 12)) of the same compound?
**A.** 9.06 ± 6.08 h

**Q.** What about the Tmax ([1]; Korean, fasted state (N = 12)) of the same compound?
**A.** 0.50 (0.50–2.00) h

**Q.** What about the AUCinf ([1]; Korean, fed state (N = 12)) of the same compound?
**A.** 13108.90 ± 5771.31 ng·h/mL

**Q.** What about the AUClast ([1]; Korean, fed state (N = 12)) of the same compound?
**A.** 12972.02 ± 5734.25 ng·h/mL

**Q.** What about the CL/F ([1]; Korean, fed state (N = 12)) of the same compound?
**A.** 6.95 ± 2.29 L/h

**Q.** What about the Cmax ([1]; Korean, fed state (N = 12)) of the same compound?
**A.** 1835.01 ± 637.11 ng/mL

**Q.** What about the Vd/F ([1]; Korean, fed state (N = 12)) of the same compound?
**A.** 104.18 ± 57.31 L

**Q.** What about the t1/2 ([1]; Korean, fed state (N = 12)) of the same compound?
**A.** 10.80 ± 5.10 h

**Q.** And the Tmax ([1]; Korean, fed state (N = 12))?
**A.** 2.00 (0.50–4.00) h

**Q.** What about the “AUCinf geometric mean ratio (90% confidence interval)” value ([1]; Korean, 80 mg) of the same compound?
**A.** 1.02 (0.9126–1.1360)

**Q.** And the “AUClast geometric mean ratio (90% confidence interval)” value ([1]; Korean, 80 mg)?
**A.** 1.02 (0.9088–1.1339)

**Q.** What about the “Cmax geometric mean ratio (90% confidence interval)” value ([1]; Korean, 80 mg) of the same compound?
**A.** 0.82 (0.7457–0.9094)

**Q.** And the “Reduction of peak concentrations after a high-fat meal” value ([1]; Koreans and Caucasians, 80 mg)?
**A.** approximately 20%

**Q.** What about the “Decrease of Cmax in the fed state compared with the fasted state” value ([1]; Koreans, 80 mg) of the same compound?
**A.** 18%

**Q.** What about the “PK profiles among the Korean, Caucasian, and Chinese subjects” value ([1]; fasted state, 80 mg) of the same compound?
**A.** comparable

**Q.** And the “Effect of the high-fat meal on overall systemic exposure” value ([1]; fed vs fasted state, 80 mg)?
**A.** not significantly affected

**Q.** What about the “IC50 compared with those of olaparib” value (PARP1) of the same compound?
**A.** similar

**Q.** What about the “Activity of inhibiting poly(ADP-ribose) formation, relative to talazoparib” value [2] of the same compound?
**A.** comparable
